Experiments:
Assay type in all cases: biochemical
[1] = target: T1, recombinant human MMP-2 (Homo sapiens, UniProt P08253); assay: Competitive fluorogenic enzyme activity assay, MMP-2; conditions: fluorogenic substrate 5 μM, 5 nM enzyme, 30 min; read-out: IC50 toward MMP-2
T1 construct: purchased Anaspec Inc. AS72005
T1 sequence (P08253 110-660): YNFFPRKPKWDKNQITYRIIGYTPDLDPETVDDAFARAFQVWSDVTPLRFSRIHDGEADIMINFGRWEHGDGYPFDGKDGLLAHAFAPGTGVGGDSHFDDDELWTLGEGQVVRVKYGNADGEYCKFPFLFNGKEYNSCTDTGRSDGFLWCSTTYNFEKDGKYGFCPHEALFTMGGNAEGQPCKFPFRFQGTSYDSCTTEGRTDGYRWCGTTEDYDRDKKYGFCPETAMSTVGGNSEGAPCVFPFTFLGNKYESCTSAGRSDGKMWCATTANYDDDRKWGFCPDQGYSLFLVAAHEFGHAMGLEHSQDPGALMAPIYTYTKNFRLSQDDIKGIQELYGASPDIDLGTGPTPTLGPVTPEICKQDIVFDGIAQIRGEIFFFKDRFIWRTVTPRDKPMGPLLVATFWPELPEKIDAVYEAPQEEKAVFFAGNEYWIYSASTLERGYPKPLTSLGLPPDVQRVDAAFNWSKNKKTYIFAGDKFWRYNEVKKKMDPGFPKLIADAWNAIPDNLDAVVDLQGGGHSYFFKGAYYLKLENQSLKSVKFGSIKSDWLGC
Procedure: (§1) Determination of the IC50 toward human MMP-2, MMP-9, MMP-12 and MMP-13 was performed by a competitive enzyme activity assay according to a literature procedure. The assay was performed by incubating 5 μM of the synthesized fluorogenic peptide substrate Mca-Pro-Leu-Gly-Leu-Dpa(Dnp)-Ala-Arg-NH2 with 5 nM recombinant human MMP-2 (AS72005, Anaspec Inc., CA, USA), MMP-9 (911-MP, R&D Systems, MN, USA), MMP-12 (917-MP, R&D Systems) and MMP-13 (AS72011, Anaspec) along with various concentrations of ML5, I-ML5, PFB, PFP, IPFB, and IPFP (0.2–365 nM) in a buffer (pH 7.5, 50 mM tris(hydroxymethyl)aminomethane, 10 mM calcium chloride, 150 mM sodium chloride, and 0.01% Brij-35) containing 5% dimethyl sulfoxide. The increase in fluorescence over time was measured using a SpectraMax M2e microplate reader (Molecular Devices Inc., CA, USA) with an excitation wavelength of 325 nm and an emission wavelength of 395 nm. The fluorescence intensity after 30 min was plotted as a function of the concentration of each of the compounds on a logarithmic scale to produce an inhibition curve that was subsequently fit with a sigmoidal function by a least squares method. The IC50 values were calculated from the inhibition curves using GraphPad Prism 6 (GraphPad Software, Inc., CA, USA).

[2] = target: T2, recombinant human MMP-9 (Homo sapiens, UniProt P14780); assay: Competitive fluorogenic enzyme activity assay, MMP-9; conditions: fluorogenic substrate 5 μM, 5 nM enzyme, 30 min; read-out: IC50 toward MMP-9
T2 construct: purchased R&D Systems 911-MP
T2 sequence (P14780 94-707): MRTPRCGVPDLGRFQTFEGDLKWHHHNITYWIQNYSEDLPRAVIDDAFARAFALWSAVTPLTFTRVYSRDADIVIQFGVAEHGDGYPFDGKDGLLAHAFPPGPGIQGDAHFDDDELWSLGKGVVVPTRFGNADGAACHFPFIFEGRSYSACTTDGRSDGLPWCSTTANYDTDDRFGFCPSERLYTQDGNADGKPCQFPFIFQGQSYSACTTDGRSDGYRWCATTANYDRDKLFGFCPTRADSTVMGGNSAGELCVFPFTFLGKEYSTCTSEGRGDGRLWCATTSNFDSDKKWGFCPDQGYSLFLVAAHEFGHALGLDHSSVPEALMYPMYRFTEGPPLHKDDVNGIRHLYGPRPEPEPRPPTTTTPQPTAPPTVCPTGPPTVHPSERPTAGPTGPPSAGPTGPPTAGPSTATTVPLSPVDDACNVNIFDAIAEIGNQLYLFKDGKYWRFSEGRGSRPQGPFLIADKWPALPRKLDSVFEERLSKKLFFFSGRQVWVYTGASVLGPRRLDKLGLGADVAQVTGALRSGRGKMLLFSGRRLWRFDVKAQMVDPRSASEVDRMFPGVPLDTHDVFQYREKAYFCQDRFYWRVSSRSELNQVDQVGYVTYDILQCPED
Procedure: as §1

[3] = target: T3, recombinant human MMP-12 (Homo sapiens, UniProt P39900); assay: Competitive fluorogenic enzyme activity assay, MMP-12; conditions: for IC50: fluorogenic substrate 5 μM, 5 nM enzyme, 30 min, read-out: IC50 toward MMP-12
T3 construct: purchased R&D Systems 917-MP
T3 sequence (P39900 106-470): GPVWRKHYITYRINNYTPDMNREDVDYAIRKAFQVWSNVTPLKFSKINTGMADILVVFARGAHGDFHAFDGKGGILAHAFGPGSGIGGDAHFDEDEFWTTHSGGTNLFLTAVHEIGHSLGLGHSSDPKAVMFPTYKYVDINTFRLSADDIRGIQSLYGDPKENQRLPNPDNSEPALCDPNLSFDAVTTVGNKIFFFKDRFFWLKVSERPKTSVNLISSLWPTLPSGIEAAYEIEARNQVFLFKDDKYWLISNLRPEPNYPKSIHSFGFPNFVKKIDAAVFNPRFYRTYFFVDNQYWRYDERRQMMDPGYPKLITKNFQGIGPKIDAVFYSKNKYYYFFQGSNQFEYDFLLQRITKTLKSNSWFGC
Procedure: Determination of the IC50 toward human MMP-2, MMP-9, MMP-12 and MMP-13 was performed by a competitive enzyme activity assay according to a literature procedure. […] The increase in fluorescence over time was measured using a SpectraMax M2e microplate reader (Molecular Devices Inc., CA, USA) with an excitation wavelength of 325 nm and an emission wavelength of 395 nm. The fluorescence intensity after 30 min was plotted as a function of the concentration of each of the compounds on a logarithmic scale to produce an inhibition curve that was subsequently fit with a sigmoidal function by a least squares method. The IC50 values were calculated from the inhibition curves using GraphPad Prism 6 (GraphPad Software, Inc., CA, USA).

[4] = target: T4, recombinant human MMP-13 (Homo sapiens, UniProt P45452); assay: Competitive fluorogenic enzyme activity assay, MMP-13; conditions: fluorogenic substrate 5 μM, 5 nM enzyme, 30 min; read-out: IC50 toward MMP-13
T4 construct: purchased Anaspec AS72011
Procedure: as §1

Row | SMILES | IC50 [1] [nM] | IC50 [2] [nM] | IC50 [3] [nM] | IC50 [4] [nM] | inverse IC50 ratio (selectivity toward MMP-12) relative to MMP-2 ([3]; MMP-12 vs MMP-2) | inverse IC50 ratio (selectivity toward MMP-12) relative to MMP-9 ([3]; MMP-12 vs MMP-9) | inverse IC50 ratio (selectivity toward MMP-12) relative to MMP-13 ([3]; MMP-12 vs MMP-13)
1 | CC(C)C[C@H](CC(=O)NO)C(=O)N[C@@H](Cc1ccc(I)cc1)C(=O)N[C@@H](CCCCN)C(N)=O [I-ML5] | 3.7 ± 1 | 13.8 ± 1.5 | 2.3 ± 1.1 | 11.8 ± 6.3 | – | – | –
2 | CC(C)C[C@H](CC(=O)NO)C(=O)N[C@@H](Cc1ccc(I)cc1)C(=O)N[C@@H](CCCCNC(=O)C(C)F)C(N)=O (stereo partly drawn) [IPFP] | 4.4 ± 2.3 | 8.1 ± 2 | 1.5 ± 0.8 | 4.1 ± 1.7 | 2.9 | 5.4 | 2.7
3 | CC(C)C[C@H](CC(=O)NO)C(=O)N[C@@H](Cc1ccccc1)C(=O)N[C@@H](CCCCNC(=O)c1ccc(F)cc1)C(N)=O [PFB] | 77.7 ± 4 | 178 ± 24.2 | 24.2 ± 14.1 | 66.1 ± 26.1 | – | – | –

Now from value to molecule:

Row | IC50 [1] [nM] | IC50 [2] [nM] | IC50 [3] [nM] | IC50 [4] [nM] | inverse IC50 ratio (selectivity toward MMP-12) relative to MMP-2 ([3]; MMP-12 vs MMP-2) | inverse IC50 ratio (selectivity toward MMP-12) relative to MMP-9 ([3]; MMP-12 vs MMP-9) | inverse IC50 ratio (selectivity toward MMP-12) relative to MMP-13 ([3]; MMP-12 vs MMP-13) | SMILES
4 | 29.1 ± 9.3 | 148 ± 30.6 | 12.3 ± 4 | 44.5 ± 21.6 | – | – | – | CC(C)C[C@H](CC(=O)NO)C(=O)N[C@@H](Cc1ccc(I)cc1)C(=O)N[C@@H](CCCCNC(=O)c1ccc(F)cc1)C(N)=O [IPFB]
5 | 12.5 ± 7.1 | 54.1 ± 38.3 | 4.5 ± 2.5 | 11.1 ± 6.6 | – | – | – | CC(C)C[C@H](CC(=O)NO)C(=O)N[C@@H](Cc1ccccc1)C(=O)N[C@@H](CCCCNC(=O)C(C)F)C(N)=O (stereo partly drawn) [PFP]
6 | – | – | 1.5 | – | – | – | – | CC(C)C[C@H](CC(=O)NO)C(=O)N[C@@H](Cc1ccc(I)cc1)C(=O)N[C@@H](CCCCNC(=O)C(C)F)C(N)=O (stereo partly drawn) [^18F-IPFP]
